Eight compounds from ChEMBL document CHEMBL1201862, “PubChem BioAssay data set” (2004) can be followed below.

The source made the active and inactive calls.

Experiment [1] is described as follows: Cytotoxicity screening for potential Inhibitors of Bacterial Capsule Biogenesis (4). The format is functional.
Another experiment deals with Fatty acid synthase (Homo sapiens, UniProt P49327). In words: inhibition of human FAS-TE enzyme activity – biochemical, endpoint fluorescence intensity, powder samples, SAR follow-up (AID 652164). The format is functional.
A further experiment concerns the target Protein Wnt-3a (Mus musculus, UniProt P27467). In words: SAR analysis of small molecule antagonists of Gli-SUFU in a Wnt3a luminescent reporter assay. The format is functional.
A short description of experiment [2]: human cervical cancer cell viability loss – 24 h, plate reader, dry powder, cytotoxicity control, dose response (AID 686928). The format is functional, cell-based. The settings on record: HeLa.
The nature of experiment [3]: viability loss in THP-1 monocytes – THP-1 cells, cytotoxicity control for Vif-APOBEC3G degradation inhibitor project, dose response (AID 1117359). The format is functional. The settings on record: THP-1.
Experiment [4] is described as follows: viability loss in HEK293T cells – cell-based, cherry-picks, cytotoxicity control for HIV Vif inhibitor project, dose response (AID 652208). The format is functional.
The target in another experiment is Paired box protein Pax-8 (Homo sapiens, UniProt Q06710). In words: PAX8 transcriptional activity inhibition in RMG-I – RMG-I cells, luciferase, cherry-pick, dose response (AID 687027).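 Also: luciferase reporter driven by Pax8 target thyroperoxidase promoter measured by SteadyGlo luminescence.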 The format is functional, cell-based.
Experiment [5] in a line: Fluorescence-based cell-based high throughput dose response assay for inhibitors of the interaction of nucleotide-binding oligomerization domain containing 2 (NOD2) and the receptor-interacting serine-threonine kinase 2 (RIPK2). The format is functional. The settings on record: Homo sapiens.
Experiment [6] can be described thus: CMV-driven luciferase expression suppression in HEK293 – cell-based, luminescence, dry powder, counter-screen for Pax8 inhibitor project, dose response (AID 743020). The format is functional.
Experiment [7] relates to BJ. Description: BJ-TERT fibroblast viability loss – cell-based, RAS-independent, luminescence, dose response (AID 1933). The format is functional. The settings on record: Homo sapiens.
A short description of experiment [8]: DRD fibroblast viability loss – cell-based, non-viral oncogenic, luminescence, dose response (AID 1934). The format is functional. The settings on record: Homo sapiens.
Experiment [9] in a line: HGIII-sPLA2 enzyme inhibition potency – biochemical, QFRET, IC50, dose response (AID 743457).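 Also: green fluorescence rise as the enzyme cleaves BODIPY PC-A2 in liposomes.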
Experiment [10] is described as follows: fluconazole-exposed Candida albicans growth modulators – fluorescence, retest, confirmation (AID 2467). The format is functional, cell-based.
Experiment [11] in a line: NIH-3T3 fibroblast cytotoxicity, dose response, cytotoxicity control, cell-based, fluorescence, Alamar Blue, secondary assay (AID 2327).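 Also: NIH-3T3 mouse fibroblasts cultured with fluconazole at 8 µg/mL.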 The format is functional.
In experiment [12] the target is T1, Rac GTPase-activating protein 1 (Homo sapiens, UniProt Q9H0H5).
T1 sequence (Q9H0H5 whole entry): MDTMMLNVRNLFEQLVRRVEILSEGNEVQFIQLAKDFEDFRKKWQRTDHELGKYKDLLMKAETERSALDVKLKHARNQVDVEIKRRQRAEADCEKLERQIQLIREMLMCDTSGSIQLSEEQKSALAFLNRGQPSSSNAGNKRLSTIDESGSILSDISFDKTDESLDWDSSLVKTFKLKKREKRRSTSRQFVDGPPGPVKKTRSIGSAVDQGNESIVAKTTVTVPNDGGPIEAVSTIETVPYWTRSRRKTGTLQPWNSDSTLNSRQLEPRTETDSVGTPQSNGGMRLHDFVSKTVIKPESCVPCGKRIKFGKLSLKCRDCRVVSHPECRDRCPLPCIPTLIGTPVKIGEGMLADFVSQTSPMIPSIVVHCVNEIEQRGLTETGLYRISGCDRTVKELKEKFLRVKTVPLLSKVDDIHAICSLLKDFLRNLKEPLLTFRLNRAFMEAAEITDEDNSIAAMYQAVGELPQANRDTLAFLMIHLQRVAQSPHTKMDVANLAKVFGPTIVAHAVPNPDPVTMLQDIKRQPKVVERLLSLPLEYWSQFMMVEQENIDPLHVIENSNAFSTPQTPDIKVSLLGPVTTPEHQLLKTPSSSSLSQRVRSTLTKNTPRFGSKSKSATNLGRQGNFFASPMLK
In words: blockers of MgcRacGAP-driven Rac1 GTP hydrolysis – biochemical, ADP Hunter fluorescence, primary and confirmatory, confirmation (AID 624330). The format is functional.

In the next experiment the target is Nonstructural protein 1 (Influenza A virus, UniProt Q194T2). The format is functional, Influenza A virus (A/California/07/2009(H1N1)).
For experiment [13], the system named is BJ. Description: BJ-TERT-LT-ST fibroblast viability loss – cell-based, RAS-independent, luminescence, dose response (AID 1935).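 Also: BJ fibroblasts immortalized with TERT plus LT and ST oncogenes.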 The format is functional. The settings on record: Homo sapiens.
Experiment [14] concerns the target T2, Histone-lysine N-methyltransferase NSD2 (Homo sapiens, UniProt O96028).
T2 sequence (O96028 whole entry): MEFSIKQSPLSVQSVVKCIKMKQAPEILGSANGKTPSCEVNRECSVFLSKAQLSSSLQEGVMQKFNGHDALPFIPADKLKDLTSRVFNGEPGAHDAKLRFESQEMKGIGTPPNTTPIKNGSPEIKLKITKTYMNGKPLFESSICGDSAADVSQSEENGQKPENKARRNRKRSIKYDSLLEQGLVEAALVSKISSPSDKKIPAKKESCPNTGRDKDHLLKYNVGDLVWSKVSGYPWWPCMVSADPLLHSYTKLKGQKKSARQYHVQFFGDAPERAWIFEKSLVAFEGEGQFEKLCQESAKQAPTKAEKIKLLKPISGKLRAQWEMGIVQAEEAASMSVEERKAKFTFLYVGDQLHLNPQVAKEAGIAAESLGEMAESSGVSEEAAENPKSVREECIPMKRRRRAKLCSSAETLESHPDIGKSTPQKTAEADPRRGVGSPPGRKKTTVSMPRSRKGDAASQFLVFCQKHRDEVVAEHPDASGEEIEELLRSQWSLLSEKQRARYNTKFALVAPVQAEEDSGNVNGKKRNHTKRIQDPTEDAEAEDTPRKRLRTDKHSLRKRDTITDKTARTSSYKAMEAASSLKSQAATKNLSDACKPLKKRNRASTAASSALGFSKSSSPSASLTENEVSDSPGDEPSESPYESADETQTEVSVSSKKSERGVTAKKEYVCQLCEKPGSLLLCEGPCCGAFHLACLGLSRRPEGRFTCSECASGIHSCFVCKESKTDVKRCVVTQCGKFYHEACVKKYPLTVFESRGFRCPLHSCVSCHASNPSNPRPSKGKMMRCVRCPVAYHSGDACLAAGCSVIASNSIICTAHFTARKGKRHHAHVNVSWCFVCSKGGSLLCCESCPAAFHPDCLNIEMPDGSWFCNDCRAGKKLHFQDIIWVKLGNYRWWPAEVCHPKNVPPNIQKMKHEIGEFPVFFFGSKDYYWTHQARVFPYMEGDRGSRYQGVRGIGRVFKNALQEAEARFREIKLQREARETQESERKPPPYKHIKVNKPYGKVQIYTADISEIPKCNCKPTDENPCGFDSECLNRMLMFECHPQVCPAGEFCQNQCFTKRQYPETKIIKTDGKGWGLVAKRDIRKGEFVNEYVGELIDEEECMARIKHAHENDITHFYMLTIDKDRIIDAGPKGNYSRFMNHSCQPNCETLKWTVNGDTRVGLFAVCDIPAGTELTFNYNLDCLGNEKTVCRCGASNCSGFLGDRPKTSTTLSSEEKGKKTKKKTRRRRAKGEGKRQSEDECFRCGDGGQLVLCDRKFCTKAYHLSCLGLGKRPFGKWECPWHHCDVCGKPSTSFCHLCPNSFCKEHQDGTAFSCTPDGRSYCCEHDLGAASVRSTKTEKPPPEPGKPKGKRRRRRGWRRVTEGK
The format is biochemical.

Experiment [15] in a line: viability loss in HeLa cells – cytotoxicity control for MgcRacGAP inhibitor project, dose response (AID 624300). The format is functional.
Experiment [16] has as its system BJ. Description: cells. The settings on record: Homo sapiens. The format is functional, cell-based.
The nature of experiment [17]: blockade of melanocortin 4 receptor signaling – cell-based, plate reader, cherry pick, counter-screen for LGR2 antagonist project, dose response (AID 743444).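 Also: transfected HEK 293 cells stimulated with alpha-MSH peptide; potency of inhibitors of the alpha-MSH evoked signal.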 The format is functional.
Experiment [18] is described as follows: inhibition of bursicon-driven LGR2 cAMP signaling – cell-based, HEK293, CRE-luciferase reporter, cherry pick, dose response (AID 743342). The format is functional.
Experiment [19] in a line: toxicity toward HepG2 liver cells – cell-based, plate reader, cherry-pick, antagonist series, cytotoxicity control, dose response (AID 743416). The format is functional.
A short description of experiment [20]: viability loss in HEK293 cells – cell-based, plate reader, cherry-picked samples, cytotoxicity control, dose response (AID 743446). The format is functional.
The nature of experiment [21]: A549 cell cytotoxicity, dose response, cytotoxicity control, plate reader, cherry-pick, antagonist series (AID 743412). The format is functional, cell-based.

Chain of Paired box protein Pax-8 (Q06710 whole entry, the tested form may be a part): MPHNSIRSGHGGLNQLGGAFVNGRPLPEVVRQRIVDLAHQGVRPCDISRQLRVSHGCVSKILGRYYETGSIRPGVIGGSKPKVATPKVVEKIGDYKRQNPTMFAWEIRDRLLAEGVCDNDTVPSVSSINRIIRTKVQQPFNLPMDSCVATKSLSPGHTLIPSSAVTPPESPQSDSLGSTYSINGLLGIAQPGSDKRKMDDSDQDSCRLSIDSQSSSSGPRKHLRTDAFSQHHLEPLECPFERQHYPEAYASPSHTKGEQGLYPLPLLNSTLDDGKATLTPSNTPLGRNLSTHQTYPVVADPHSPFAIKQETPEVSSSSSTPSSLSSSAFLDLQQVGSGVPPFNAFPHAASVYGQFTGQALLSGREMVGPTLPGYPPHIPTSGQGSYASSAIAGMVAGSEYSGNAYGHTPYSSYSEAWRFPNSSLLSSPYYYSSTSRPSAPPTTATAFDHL
Chain of Nonstructural protein 1 (Q194T2 whole entry): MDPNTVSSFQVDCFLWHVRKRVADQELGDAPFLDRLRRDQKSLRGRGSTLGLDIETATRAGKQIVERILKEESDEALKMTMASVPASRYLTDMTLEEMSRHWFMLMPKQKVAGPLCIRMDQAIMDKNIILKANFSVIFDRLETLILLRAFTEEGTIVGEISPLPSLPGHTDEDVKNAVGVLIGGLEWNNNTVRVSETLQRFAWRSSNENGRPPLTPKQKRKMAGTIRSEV
Chain of Fatty acid synthase (P49327 whole entry): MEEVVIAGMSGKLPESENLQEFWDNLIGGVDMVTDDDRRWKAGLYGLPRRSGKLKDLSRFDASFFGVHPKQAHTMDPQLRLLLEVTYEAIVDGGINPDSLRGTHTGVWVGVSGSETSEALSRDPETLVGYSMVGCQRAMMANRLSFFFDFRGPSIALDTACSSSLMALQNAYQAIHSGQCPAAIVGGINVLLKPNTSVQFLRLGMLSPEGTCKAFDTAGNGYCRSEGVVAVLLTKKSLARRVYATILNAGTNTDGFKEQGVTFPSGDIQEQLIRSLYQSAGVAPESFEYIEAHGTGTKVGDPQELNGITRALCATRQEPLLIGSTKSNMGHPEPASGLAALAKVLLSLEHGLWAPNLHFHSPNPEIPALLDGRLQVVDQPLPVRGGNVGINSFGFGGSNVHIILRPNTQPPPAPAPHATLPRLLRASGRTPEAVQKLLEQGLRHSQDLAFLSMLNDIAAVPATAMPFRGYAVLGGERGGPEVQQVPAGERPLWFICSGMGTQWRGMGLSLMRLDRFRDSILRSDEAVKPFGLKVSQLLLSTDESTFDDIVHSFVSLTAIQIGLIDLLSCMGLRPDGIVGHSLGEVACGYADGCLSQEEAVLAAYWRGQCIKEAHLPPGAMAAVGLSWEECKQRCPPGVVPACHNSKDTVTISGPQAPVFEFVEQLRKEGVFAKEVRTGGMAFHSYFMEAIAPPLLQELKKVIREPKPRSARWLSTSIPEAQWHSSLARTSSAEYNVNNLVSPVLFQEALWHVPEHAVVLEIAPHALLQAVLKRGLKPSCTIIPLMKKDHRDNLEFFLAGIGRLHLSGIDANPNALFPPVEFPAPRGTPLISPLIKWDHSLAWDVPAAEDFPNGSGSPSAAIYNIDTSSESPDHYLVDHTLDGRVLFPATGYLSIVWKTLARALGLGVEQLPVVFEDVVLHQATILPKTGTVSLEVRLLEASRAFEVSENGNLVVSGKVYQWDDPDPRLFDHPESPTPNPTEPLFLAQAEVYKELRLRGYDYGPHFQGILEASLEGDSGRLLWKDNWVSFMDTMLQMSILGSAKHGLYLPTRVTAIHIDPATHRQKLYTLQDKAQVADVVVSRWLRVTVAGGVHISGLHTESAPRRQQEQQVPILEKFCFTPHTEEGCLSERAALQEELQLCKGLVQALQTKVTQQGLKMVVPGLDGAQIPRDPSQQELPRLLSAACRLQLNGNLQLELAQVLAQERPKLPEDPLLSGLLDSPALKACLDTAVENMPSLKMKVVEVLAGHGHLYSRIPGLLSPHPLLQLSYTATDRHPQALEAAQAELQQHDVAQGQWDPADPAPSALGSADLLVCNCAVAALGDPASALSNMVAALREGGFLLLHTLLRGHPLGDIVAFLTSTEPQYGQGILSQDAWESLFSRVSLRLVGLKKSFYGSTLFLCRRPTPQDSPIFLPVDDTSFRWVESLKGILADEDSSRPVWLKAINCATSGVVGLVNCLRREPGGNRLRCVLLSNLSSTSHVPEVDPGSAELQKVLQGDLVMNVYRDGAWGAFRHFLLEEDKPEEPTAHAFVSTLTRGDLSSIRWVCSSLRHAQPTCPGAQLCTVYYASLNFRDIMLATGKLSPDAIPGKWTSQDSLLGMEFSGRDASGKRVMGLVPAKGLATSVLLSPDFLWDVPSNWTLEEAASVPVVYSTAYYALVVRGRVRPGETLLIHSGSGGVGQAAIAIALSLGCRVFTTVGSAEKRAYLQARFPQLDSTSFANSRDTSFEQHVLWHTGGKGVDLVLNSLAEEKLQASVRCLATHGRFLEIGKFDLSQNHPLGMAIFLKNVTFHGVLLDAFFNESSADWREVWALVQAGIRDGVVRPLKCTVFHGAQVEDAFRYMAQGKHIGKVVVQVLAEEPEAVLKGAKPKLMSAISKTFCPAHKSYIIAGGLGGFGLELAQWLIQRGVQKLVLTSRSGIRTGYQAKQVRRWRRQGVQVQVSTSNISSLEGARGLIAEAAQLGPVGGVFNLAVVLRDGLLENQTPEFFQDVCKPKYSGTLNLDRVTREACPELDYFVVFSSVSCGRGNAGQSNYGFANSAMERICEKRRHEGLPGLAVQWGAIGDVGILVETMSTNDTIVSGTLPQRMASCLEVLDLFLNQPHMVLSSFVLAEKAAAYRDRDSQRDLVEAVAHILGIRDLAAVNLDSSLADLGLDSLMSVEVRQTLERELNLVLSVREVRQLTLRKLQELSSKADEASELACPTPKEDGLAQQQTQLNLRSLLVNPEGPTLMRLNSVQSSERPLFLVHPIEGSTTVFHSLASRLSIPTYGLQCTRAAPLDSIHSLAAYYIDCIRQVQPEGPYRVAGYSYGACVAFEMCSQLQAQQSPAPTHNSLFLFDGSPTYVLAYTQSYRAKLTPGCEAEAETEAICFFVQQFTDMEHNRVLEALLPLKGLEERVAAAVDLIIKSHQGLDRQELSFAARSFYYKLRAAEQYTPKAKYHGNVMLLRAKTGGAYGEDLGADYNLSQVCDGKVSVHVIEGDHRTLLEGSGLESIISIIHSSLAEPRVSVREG
Chain of Protein Wnt-3a (P27467 whole entry): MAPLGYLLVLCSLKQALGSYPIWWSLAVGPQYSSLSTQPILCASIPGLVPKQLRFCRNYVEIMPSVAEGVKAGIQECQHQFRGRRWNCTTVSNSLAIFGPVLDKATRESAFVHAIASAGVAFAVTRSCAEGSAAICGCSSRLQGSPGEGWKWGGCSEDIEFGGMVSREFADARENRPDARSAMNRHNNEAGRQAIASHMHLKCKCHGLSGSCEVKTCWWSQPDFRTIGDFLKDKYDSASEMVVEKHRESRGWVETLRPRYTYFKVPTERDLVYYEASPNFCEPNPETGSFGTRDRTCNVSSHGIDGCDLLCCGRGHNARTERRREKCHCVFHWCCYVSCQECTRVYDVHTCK

Turning to `COc1cc(NC(=O)c2ccc3nc(C)sc3c2)ccn1`, in experiment [1], the CC50 was > 300 µM (inactive).

`O=C(Nc1nc(-c2ccc(S(=O)(=O)N3CCOCC3)cc2)cs1)C1CCCCC1`: the IC50 at Fatty acid synthase was > 80 µM (inactive).

As to `O=C(Nc1cc(N2CCCCCC2)ncn1)c1ccccc1`, at Protein Wnt-3a, the IC50 is > 21.8 µM (inactive).

As for `CC(C)c1ccc2cc3c(NC(=O)c4ccco4)nn(C)c3nc2c1`, the AC50 in experiment [2] was 91.9 µM (active).

For `C=CC(=O)N1C/C(=C/c2ccc(F)cc2)C(=O)/C(=C\c2ccc(F)cc2)C1`, the CC50 in [3] is 0.57 µM (active). The AC50 is 1.4 µM (active) in experiment [4] and 2.36 µM (active) at Paired box protein Pax-8. Besides, the IC50 in experiment [5] is 3.71 µM (active).

Regarding `CC(=O)c1cc(NC(=O)c2cccc(C(F)(F)F)c2)c(=O)oc1C`, the AC50 is 15.8 µM (active) on Paired box protein Pax-8 and < 9 µM (active) in experiment [6].

For the compound `CN(C)c1ccc(/C=C/C=C/c2sc3ccccc3[n+]2C)cc1.[O-][Cl+3]([O-])([O-])[O-]`, the EC50 with BJ [7] was 2.83 µM (inconclusive); in experiment [8] it was 4.85 µM (active); in [10], 0.194 µM (active); in experiment [11], > 150 µM (inactive); in the experiment with BJ [13] it was 29.2 µM (active); in the experiment on BJ [16], 4.81 µM (active). For the same compound, the IC50 was 41.6 µM (inactive) in experiment [9], 62.6 µM (active) in experiment [12] and 15 µM (active) on Nonstructural protein 1. Further, the half-maximal activity concentration (AC50) in experiment [14] is 15.8 µM (active). Also, in [15], the CC50 is 64 µM (active).

In the case of `C[C@H](CO)N1C[C@H](C)[C@H](CN(C)C(=O)Nc2ccc(F)cc2)OCCCC[C@H](C)Oc2ccc(NC(=O)Nc3ccccc3)cc2C1=O`, the concentration at half-maximal activity (AC50) in experiment [17] is 44.4 µM (active); in experiment [18], 6.77 µM (active); in experiment [19], 35.2 µM (active); in experiment [20], 40.6 µM (active); in [21], 37 µM (active).
